Key:
Assay type in all cases: physicochemical
[1] = Release of 1-MCP by gas sparge, large scale, 0.14% complex (Example 3); conditions: 3400 g 0.14% complex in 11 liters water, air 400 liters/hour, 22° C.
Procedure: Thirty four hundred grams of a 0.14% 1-MCP/α-CD complex in powdered form was placed into a 20 liter plastic vessel containing 11 liters of water and a 56 inch segment of a Bubble Wall air diffuser (IPSD, Inc., San Diego, Calif.). The air diffuser is hooked to a Pro Gold® Profile 400 air pump via flexible connective tubing. The pump was set at the rate of 400 liters of air/hour. The temperature was set at 22° C.
The vessel was covered and fitted with an outlet tube through which all of the escaping air had to pass. After the pump was turned on, the air exiting the vessel was sampled periodically for 1-MCP content. Analysis was by gas chromatography using a flame detector.

[2] = Release of 1-MCP from 1-MCP/α-CD complex in water, Comparative 2 (stir bar); conditions: 50 g 0.14% complex in 250 ml water, constant magnetic stir bar, no pump
Procedure: (§1) Fifty grams of 0.14% concentration of 1-MCP/α-CD complex in powdered form was placed into a 1000 ml beaker which also contained 250 ml of water. Into the beaker was also placed a Mini Jet® MN404 submersible pump (available from IPSD, Inc., San Diego, Calif.) which was set at a flow rate of approximately 200 liters/hour. This system was then placed into a 36 liter Plexiglas airtight chamber fitted with a septum for inserting a syringe for gas sampling. The temperature was set at 22° C.
(§2) After the chamber was sealed, the pump was turned on, creating a fountain-type flow in the beaker. The atmosphere of the chamber was sampled periodically to monitor the release of 1-MCP. The analysis was performed by gas chromatography using a flame ionization detector.
(§3) This procedure was repeated twice without using the pump for comparison purposes. The first comparison involved mixing the powdered suspension by swirling the contents of the beaker for 30 seconds, every 5 minutes. The second comparison involved using a 2 inch magnetic stir bar and a stir plate instead a pump to constantly mix the suspension.

[3] = Release of 1-MCP by gas sparge, large scale, 3.3% complex, conical bottom vessel (Example 4); conditions: 182 g 3.3% complex in 8 liters water, air 204 liters/hour, 22° C.
Procedure: One hundred eighty two grams of a 3.3% concentration of a 1-MCP/α-CD powder complex was placed in an 11 liter plastic vessel having a conical shaped bottom (at a 60 degree angle from horizontal). To the vessel was then added 8 liters of water. The vessel was fitted with a Kordon Mist Air® fine air diffuser (Novalek, Inc., Hayward, Calif.) hooked to a Sensidyne AP060SEEF60C1 air pump (available from Sensidyne Inc., Clearwater, Fla. which was set at a pumping rate of 204 liters of air/hour. The vessel was covered and then fitted with an outlet tube through which all of the vented air passed. The temperature was set at 22° C.
After the pump was turned on, the exiting air was sampled periodically for 1-MCP content. Analysis was by gas chromatography using a flame ionization detector.

[4] = Release of 1-MCP by gas sparge, small scale (Example 2); conditions: 50 g 0.14% complex in 250 ml water, air 100 liters/hour
Procedure: Fifty grams of a 0.14% 1-MCP/α-CD complex in powdered form was placed into a 600 ml beaker which contained 250 ml of water. Also present in the beaker is a 10 inch long segment of Bubble Wall air diffusers (IPSD, Inc. San Diego, Calif.). This was connected to a Tetratec® air pump (Tetra Co., Blacksburg, Va.) via flexible connective tubing. The pump was set at a rate of 100 liters/hour. This system was then placed in a 36 liter Plexiglas airtight chamber fitted with a septum for inserting a syringe for gas sampling.
After the chamber was sealed, the pump was turned on to sparge gas through the aqueous suspension. The air in the chamber was sampled periodically to determine the rate of 1-MCP released. Analysis was performed by gas chromatography using a flame ionization detector.

[5] = Release of 1-MCP from 1-MCP/α-CD complex in water, fountain pump (Example 1); conditions: 50 g 0.14% 1-MCP/α-CD complex in 250 ml water, pump approx. 200 liters/hour, 22° C.
Procedure: as §1, §2

[6] = Release of 1-MCP from 1-MCP/α-CD complex in water, Comparative 1 (mix every 5 min.); conditions: 50 g 0.14% complex in 250 ml water, swirling 30 seconds every 5 minutes, no pump
Procedure: as §1, §2, §3

CC1=CC1 [1-MCP, 1-methylcyclopropene]
Percent 1-MCP Released (gas sparge) ([1]; Time 0.17 hrs.): 12%
Percent 1-MCP Released (gas sparge) ([1]; Time 0.33 hrs.): 29%
Percent 1-MCP Released (gas sparge) ([1]; Time 0.5 hrs.): 48%
Percent 1-MCP Released (gas sparge) ([1]; Time 0.75 hrs.): 70%
Percent 1-MCP Released (gas sparge) ([1]; Time 1.0 hrs.): 84%
Percent 1-MCP Released (gas sparge) ([1]; Time 1.25 hrs.): 92%
Percent 1-MCP Released (gas sparge) ([1]; Time 1.5 hrs.): 96%
Percent 1-MCP Released (gas sparge) ([1]; Time 2.0 hrs.): 100%
Percent 1-MCP Released Comparative 2 (stir bar) ([2]; Time 0.17): 4%
Percent 1-MCP Released Comparative 2 (stir bar) ([2]; Time 0.42): 6%
Percent 1-MCP Released Comparative 2 (stir bar) ([2]; Time 1.0): 9%
Percent 1-MCP Released Comparative 2 (stir bar) ([2]; Time 1.5): 14%
Percent 1-MCP Released Comparative 2 (stir bar) ([2]; Time 2.5): 21%
Percent 1-MCP Released Comparative 2 (stir bar) ([2]; Time 5.5 (hours)): 43%
Percent 1-MCP Released (gas sparge) ([3]; Time 1.0 hrs.): 85%
Percent 1-MCP Released (gas sparge) ([3]; Time 1.85 hrs.): 100%
Percent 1-MCP Released (gas sparge) ([4]; Time 0.17 Hrs): 42%
Percent 1-MCP Released (gas sparge) ([4]; Time 0.42 Hrs): 58%
Percent 1-MCP Released (gas sparge) ([4]; Time 0.75 Hrs): 75%
Percent 1-MCP Released (gas sparge) ([4]; Time 1.0 Hrs): 83%
Percent 1-MCP Released (gas sparge) ([4]; Time 2.0 Hrs): 92%
Percent 1-MCP Released Fountain Pump ([5]; Time 0.08): 14%
Percent 1-MCP Released Fountain Pump ([5]; Time 0.17): 43%
Percent 1-MCP Released Fountain Pump ([5]; Time 0.42): 57%
Percent 1-MCP Released Fountain Pump ([5]; Time 1.0): 79%
Percent 1-MCP Released Fountain Pump ([5]; Time 1.5): 86%
Percent 1-MCP Released Fountain Pump ([5]; Time 2.5 (hours)): 90%
Percent 1-MCP Released Comparative 1 (mix every 5 min.) ([6]; Time 0.17): 4%
Percent 1-MCP Released Comparative 1 (mix every 5 min.) ([6]; Time 0.42): 6%
Percent 1-MCP Released Comparative 1 (mix every 5 min.) ([6]; Time 1.0): 9%
Percent 1-MCP Released Comparative 1 (mix every 5 min.) ([6]; Time 3.0): 14%
Percent 1-MCP Released Comparative 1 (mix every 5 min.) ([6]; Time 4.0): 16%
Percent 1-MCP Released Comparative 1 (mix every 5 min.) ([6]; Time 5.5 (hours)): 17%
